Values of other authors, collected in patent US8961477B2, “Delivery of immune response modifier compounds” (3M Innovative Properties Company, priority 2003, dated 2015).

Tests used:
[1] = molecular target: T1, TLR 8 (Homo sapiens, UniProt Q9NR97); conditions: statement in words, no data given
T1 construct: expressed in transfected cells
T1 sequence (Q9NR97 27-1041): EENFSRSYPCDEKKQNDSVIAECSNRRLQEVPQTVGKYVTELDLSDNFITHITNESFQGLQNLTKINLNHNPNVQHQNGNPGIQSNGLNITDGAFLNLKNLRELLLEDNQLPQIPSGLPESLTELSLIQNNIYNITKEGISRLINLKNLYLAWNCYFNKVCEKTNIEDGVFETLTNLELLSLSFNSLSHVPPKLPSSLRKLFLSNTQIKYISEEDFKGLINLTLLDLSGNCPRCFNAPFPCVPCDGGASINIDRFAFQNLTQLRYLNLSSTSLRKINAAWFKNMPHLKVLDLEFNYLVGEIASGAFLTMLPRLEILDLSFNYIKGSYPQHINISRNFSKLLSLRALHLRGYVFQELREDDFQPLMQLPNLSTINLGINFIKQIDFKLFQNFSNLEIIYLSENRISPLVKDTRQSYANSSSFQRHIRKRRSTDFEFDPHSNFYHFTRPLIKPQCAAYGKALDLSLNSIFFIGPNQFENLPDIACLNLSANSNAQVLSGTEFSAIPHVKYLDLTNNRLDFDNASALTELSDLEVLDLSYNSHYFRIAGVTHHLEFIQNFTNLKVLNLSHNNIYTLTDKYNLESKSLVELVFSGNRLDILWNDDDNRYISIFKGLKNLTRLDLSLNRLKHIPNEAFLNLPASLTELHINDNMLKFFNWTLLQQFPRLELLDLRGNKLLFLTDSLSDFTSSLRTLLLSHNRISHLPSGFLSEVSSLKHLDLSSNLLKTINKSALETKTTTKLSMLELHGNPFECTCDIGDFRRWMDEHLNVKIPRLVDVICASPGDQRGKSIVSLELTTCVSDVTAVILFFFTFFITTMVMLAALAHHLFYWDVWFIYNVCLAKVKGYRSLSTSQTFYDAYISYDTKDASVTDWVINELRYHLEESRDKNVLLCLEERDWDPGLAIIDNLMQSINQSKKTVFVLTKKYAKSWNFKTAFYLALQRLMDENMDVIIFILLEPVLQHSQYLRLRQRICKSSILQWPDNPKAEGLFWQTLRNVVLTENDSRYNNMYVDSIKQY

[2] = molecular target: T2, TLR 7 (Homo sapiens, UniProt Q9NYK1); conditions: statement in words, no data given
T2 construct: expressed in transfected cells
T2 sequence (Q9NYK1 27-1049): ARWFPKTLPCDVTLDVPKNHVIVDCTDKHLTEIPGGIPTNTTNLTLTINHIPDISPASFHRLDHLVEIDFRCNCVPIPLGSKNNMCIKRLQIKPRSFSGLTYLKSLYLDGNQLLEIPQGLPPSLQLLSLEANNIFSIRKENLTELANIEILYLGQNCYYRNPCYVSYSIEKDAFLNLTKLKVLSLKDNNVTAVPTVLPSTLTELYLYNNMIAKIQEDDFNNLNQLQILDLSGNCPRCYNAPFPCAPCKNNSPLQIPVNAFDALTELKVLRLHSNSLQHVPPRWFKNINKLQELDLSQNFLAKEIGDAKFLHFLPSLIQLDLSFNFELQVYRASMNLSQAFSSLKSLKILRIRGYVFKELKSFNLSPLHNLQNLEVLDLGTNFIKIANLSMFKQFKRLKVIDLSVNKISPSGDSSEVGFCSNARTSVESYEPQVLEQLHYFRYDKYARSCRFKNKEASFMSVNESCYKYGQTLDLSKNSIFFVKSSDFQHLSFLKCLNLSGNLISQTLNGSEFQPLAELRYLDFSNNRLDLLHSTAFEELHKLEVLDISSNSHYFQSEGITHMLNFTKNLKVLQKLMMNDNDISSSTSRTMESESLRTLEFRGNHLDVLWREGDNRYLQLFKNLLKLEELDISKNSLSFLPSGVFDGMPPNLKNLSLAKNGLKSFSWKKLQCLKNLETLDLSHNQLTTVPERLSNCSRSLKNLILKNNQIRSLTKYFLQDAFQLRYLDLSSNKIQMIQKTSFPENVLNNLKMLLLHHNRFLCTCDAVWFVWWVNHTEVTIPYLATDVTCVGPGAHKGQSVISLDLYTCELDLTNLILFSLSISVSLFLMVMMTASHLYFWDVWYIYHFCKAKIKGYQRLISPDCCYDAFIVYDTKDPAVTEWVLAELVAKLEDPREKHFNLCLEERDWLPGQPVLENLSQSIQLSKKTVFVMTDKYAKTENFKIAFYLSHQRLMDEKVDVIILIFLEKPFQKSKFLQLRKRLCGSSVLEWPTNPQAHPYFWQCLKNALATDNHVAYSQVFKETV

[3] = molecular target: T3, TLR 6 (Homo sapiens, UniProt Q9Y2C9); conditions: statement in words, no data given
T3 construct: expressed in transfected cells
T3 sequence (Q9Y2C9 32-796): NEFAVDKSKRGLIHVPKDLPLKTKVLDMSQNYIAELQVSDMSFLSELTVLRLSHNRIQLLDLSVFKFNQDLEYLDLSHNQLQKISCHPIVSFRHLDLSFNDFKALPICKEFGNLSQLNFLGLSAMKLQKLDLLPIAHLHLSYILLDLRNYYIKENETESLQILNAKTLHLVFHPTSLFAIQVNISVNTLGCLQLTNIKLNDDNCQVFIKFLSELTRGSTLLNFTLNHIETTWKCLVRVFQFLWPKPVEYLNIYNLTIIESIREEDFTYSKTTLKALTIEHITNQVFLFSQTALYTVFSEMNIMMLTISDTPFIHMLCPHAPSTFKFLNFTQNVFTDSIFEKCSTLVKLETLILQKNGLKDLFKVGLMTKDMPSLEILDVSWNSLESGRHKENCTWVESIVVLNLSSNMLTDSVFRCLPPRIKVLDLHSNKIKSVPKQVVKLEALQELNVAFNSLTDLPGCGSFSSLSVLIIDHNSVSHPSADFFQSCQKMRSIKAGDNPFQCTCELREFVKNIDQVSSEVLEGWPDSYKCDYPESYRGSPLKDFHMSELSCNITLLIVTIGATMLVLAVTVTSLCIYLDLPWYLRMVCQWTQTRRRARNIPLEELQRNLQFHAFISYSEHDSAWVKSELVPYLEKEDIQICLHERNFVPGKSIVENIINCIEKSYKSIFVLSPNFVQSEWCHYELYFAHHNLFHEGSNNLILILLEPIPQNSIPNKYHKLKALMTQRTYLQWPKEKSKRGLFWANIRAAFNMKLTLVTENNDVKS

[4] = delivered systemically

TLR 8 agonist activity [1]	TLR 7 agonist activity [2]	TLR 6 activity [3]	CNS effect compared to imiquimod [4]	Structure (SMILES)
not a substantial TLR 8 agonist	predominantly a TLR 7 agonist	TLR 6 activity	much lower CNS effect	CC(C)(O)Cn1cnc2c(N)nc3ccccc3c21 [4-amino-α,α-dimethyl-1H-imidazo[4,5-c]quinoline-1-ethanol]
TLR 7 and TLR 8 agonist	TLR 7 and TLR 8 agonist			CCOCc1nc2c(N)nc3c(c2n1CC(C)(C)O)CCCC3 [4-amino-2-(ethoxymethyl)-α,α-dimethyl-6,7,8,9-tetrahydro-1H-imidazo[4,5-c]quinoline-1-ethanol]
